The source of these data is paper PMC6408513, “A Novel Lactate Dehydrogenase Inhibitor, 1-(Phenylseleno)-4-(Trifluoromethyl) Benzene, Suppresses Tumor Growth through Apoptotic Cell Death” (Scientific Reports, 2019).

As a reminder, the IC50 is the point on the concentration scale where inhibition reaches its midpoint.

The target in assay [1] is T1, lactate dehydrogenase A (LDHA) (Homo sapiens, UniProt P00338). Description: in vitro LDH activity assay by NADH fluorescence; Michaelis-Menten/Lineweaver-Burk; inhibits […]-pyruvate binding. Set-up: purified recombinant human LDHA. It is filed as biochemical.
For assay [2], the target named is T1, lactate dehydrogenase A (LDHA). In words: […]-pyruvate radioligand binding to bead-bound LDHA, competed by unlabeled pyruvate. Set-up: purified His tagged-LDHA.
The target is the same in assay [3]. In words: in vitro LDH activity assay by NADH fluorescence. It is filed as biochemical. Set-up: purified recombinant human LDHA.

Take `FC(F)(F)c1ccc([Se]c2ccccc2)cc1` [PSTMB, 1-(phenylseleno)-4-(trifluoromethyl)benzene]: the half-inhibitory concentration (IC50) in assay [1] amounted to 0.145 µM.

For the molecule `CC(=O)C(=O)O` [pyruvate], in assay [2], the “14C-pyruvate radioligand binding to bead-bound LDHA, competed by unlabeled pyruv” value is on record as “The binding of pyruvate to LDHA was determined using C^14-labeled pyruvate”. With `c1ccc([Se]C2CCSC2)cc1` (stereo not drawn) [tetrahydro-3-(phenylseleno) thiophene], in assay [3], the “in vitro LDH activity assay by NADH fluorescence” value is “tetrahydro-3-(phenylseleno) thiophene, and 1-methoxy-4-[(phenylmethyl)seleno]benzene had inhibitory effects on LDHA activity”.
